Experimental data published in patent US11339130B1 (Blade Therapeutics, Inc., priority 2016, dated 2022).
Read-outs that look alike come from different tables or passages of the source.

What was measured:
Human Calpain 9/NS1 = target: T1, Human Calpain 9/NS1 (Homo sapiens, UniProt O14815); assay: Calpain inhibition continuous fluorescence (FRET) assay, Human Calpain 9/NS1; assay type: biochemical; settings: read-out: Human Calpain 9/NS1 IC50
T1 sequence (O14815 1-690): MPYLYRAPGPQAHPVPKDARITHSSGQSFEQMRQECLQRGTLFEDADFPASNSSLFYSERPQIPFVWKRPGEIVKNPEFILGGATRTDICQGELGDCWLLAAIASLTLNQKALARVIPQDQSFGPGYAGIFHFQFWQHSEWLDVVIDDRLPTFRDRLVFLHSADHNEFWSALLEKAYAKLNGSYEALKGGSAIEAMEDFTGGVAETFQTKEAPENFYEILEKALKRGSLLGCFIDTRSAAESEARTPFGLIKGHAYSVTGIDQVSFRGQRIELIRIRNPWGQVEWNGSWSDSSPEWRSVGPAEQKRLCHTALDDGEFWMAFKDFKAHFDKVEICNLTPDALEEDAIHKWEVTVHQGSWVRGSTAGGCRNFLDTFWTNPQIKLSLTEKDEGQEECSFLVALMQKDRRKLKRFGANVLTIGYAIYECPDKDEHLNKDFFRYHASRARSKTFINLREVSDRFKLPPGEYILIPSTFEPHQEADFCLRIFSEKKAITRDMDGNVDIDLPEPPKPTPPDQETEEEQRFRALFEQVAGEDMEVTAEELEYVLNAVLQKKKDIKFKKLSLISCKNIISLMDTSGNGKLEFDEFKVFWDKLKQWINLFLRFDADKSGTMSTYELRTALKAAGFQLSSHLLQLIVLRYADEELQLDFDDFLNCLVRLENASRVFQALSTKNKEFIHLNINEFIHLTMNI
T1 sequence (P04632 1-268 partner): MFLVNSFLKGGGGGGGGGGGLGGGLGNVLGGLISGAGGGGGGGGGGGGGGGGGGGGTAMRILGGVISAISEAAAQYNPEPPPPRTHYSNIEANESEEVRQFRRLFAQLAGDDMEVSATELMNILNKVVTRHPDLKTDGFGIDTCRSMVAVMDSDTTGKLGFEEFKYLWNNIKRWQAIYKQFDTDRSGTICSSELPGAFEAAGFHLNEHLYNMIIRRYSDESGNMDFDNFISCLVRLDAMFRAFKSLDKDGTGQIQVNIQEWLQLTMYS
Outline: (§1)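 Human calpains 1, 2 and 9 preincubated with inhibitor at 25 °C in 50 mM Tris pH 7.5, 100 mM NaCl, 1 mM DTT; reaction started with 5-FAM/QXL 520 FRET peptide plus CaCl2 for activation. Fluorescence (490/520 nm) followed 10 min; rates from 1-5 min slopes fitted to 4-parameter logistic for IC50.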

[1] = system: Calpain activity in SH-SY5Y cells; assay: SH-SY5Y + AMC fluorescence assay (Suc-LLVY-AMC substrate); assay type: cell-based; settings: read-out: SH-SY5Y + AMC IC50
[2] = system: Calpain activity in SH-SY5Y cells (SBDP-150); assay: SH-SY5Y Spectrin western blot assay (SBDP-150 breakdown product, A23187-induced); assay type: cell-based; settings: Homo sapiens, SH-SY5Y cells, read-out: SH-SY5Y Spectrin IC50
Human Calpain 2/NS1 = target: T2, Human Calpain 2/NS1 (Homo sapiens, UniProt P17655); assay: Calpain inhibition continuous fluorescence (FRET) assay, Human Calpain 2/NS1; assay type: biochemical; settings: read-out: Human Calpain 2/NS1 IC50
T2 sequence (P17655 1-700): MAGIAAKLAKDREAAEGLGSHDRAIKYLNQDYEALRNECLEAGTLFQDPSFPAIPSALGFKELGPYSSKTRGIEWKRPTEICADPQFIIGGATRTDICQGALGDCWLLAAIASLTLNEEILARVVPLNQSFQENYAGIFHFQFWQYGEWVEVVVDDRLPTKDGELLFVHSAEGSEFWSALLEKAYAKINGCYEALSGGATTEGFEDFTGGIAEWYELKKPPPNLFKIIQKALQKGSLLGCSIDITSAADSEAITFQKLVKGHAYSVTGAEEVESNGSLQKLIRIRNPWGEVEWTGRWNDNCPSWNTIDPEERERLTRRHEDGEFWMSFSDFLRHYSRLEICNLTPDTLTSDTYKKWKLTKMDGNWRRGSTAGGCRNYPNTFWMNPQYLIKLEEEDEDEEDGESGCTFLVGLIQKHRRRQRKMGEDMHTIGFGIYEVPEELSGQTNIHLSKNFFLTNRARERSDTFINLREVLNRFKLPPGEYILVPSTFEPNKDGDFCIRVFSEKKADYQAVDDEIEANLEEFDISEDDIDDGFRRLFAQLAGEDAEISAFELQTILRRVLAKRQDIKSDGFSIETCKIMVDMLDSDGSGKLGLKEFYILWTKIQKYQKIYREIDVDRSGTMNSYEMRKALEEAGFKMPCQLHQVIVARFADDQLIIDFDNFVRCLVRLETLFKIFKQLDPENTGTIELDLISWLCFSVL
T2 sequence (P04632 1-268 partner): T1 sequence (P04632 1-268 partner)
Outline: as §1

Human Calpain 1/NS1 = target: T3, Human Calpain 1/NS1 (Homo sapiens, UniProt P07384); assay: Calpain inhibition continuous fluorescence (FRET) assay, Human Calpain 1/NS1; assay type: biochemical; settings: read-out: Human Calpain 1/NS1 IC50
T3 sequence (P07384 1-714): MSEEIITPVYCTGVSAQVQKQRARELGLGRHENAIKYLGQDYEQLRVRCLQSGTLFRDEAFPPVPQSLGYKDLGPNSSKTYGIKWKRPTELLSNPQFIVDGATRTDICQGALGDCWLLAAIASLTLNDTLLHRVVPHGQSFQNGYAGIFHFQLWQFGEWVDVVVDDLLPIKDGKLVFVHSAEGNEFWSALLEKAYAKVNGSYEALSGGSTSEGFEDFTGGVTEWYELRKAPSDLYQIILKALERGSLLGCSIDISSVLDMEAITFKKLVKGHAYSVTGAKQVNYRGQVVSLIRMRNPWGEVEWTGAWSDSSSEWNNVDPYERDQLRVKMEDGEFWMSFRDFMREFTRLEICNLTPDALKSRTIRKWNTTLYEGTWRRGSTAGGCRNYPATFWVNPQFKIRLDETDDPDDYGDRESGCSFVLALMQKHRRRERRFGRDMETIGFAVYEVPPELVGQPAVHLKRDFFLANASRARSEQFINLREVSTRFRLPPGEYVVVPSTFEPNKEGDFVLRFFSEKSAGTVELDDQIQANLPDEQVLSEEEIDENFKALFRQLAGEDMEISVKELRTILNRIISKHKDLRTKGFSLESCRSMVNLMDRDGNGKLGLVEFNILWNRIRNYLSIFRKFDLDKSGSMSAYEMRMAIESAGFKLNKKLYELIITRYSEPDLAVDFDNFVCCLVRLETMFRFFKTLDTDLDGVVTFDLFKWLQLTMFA
T3 sequence (P04632 1-268 partner): T1 sequence (P04632 1-268 partner)
Outline: as §1

[3] = Column D, A23187-induced SBDP-150
[4] = A23187-induced SBDP-150, western blot

Compound | IC50 (Human Calpain 9/NS1; Column C) | IC50 ([1]; Column E) | IC50 [2, 3] | IC50 (Human Calpain 2/NS1; Column B) | IC50 (Human Calpain 1/NS1; Column A) | IC50 (Human Calpain 9/NS1) | IC50 [1] | IC50 [2, 4] | IC50 (Human Calpain 2/NS1) | IC50 (Human Calpain 1/NS1)
Cc1cc(C(=O)N[C@@H](Cc2ccccc2)C(=O)C(N)=O)c(-c2ccccc2)o1 [Compound 118, (S)—N-(4-amino-3,4-dioxo-1-phenylbutan-2-yl)-5-methyl-2-phenylfuran-3-carboxamide] | < 3 µM | > 25 µM | < 10 µM | < 3 µM | < 3 µM |  |  |  |  | 
Cc1cc(C(=O)NC(C=O)Cc2ccccc2)n(-c2ccc(C(F)(F)F)cn2)n1 (stereo not drawn) [Compound 399, 3-methyl-N-(1-oxo-3-phenylpropan-2-yl)-1-(5-(trifluoromethyl)pyridin-2-yl)-1H-pyrazole-5-carboxamide] |  |  |  |  |  | 3 to 10 µM | > 25 µM | > 25 µM | < 3 µM | < 3 µM
NC(=O)C(=O)C(Cc1ccccc1)NC(=O)c1cn(C(F)F)nc1-c1cnccn1 (stereo not drawn) [Compound 581, N-(4-amino-3,4-dioxo-1-phenylbutan-2-yl)-1-(difluoromethyl)-3-(pyrazin-2-yl)-1H-pyrazole-4-carboxamide] |  |  |  |  |  | < 3 µM | 10 to 25 µM | > 25 µM | < 3 µM | < 3 µM
CC(C)C[C@H](NC(=O)c1cn(C)nc1-c1ccccc1)C(=O)C(N)=O [Compound 415, (S)—N-(1-amino-5-methyl-1,2-dioxohexan-3-yl)-1-methyl-3-phenyl-1H-pyrazole-4-carboxamide] |  |  |  |  |  | < 3 µM | > 25 µM | > 25 µM | < 3 µM | < 3 µM
Cc1cc(C(=O)N[C@@H](Cc2ccccc2)C(=O)C(N)=O)n(-c2cccnc2)n1 [Compound 136, (S)—N-(4-amino-3,4-dioxo-1-phenylbutan-2-yl)-3-methyl-1-(pyridin-3-yl)-1H-pyrazole-5-carboxamide] | < 3 µM | 10 to 25 µM | 10 to 25 µM | < 3 µM | < 3 µM |  |  |  |  | 
Cn1cc(C(=O)NC(Cc2ccccc2)C(=O)C(N)=O)c(-c2cccc(F)c2C(F)(F)F)n1 (stereo not drawn) [Compound 512, N-(4-amino-3,4-dioxo-1-phenylbutan-2-yl)-3-(3-fluoro-2-(trifluoromethyl)phenyl)-1-methyl-1H-pyrazole-4-carboxamide] |  |  |  |  |  | 3 to 10 µM | < 10 µM | > 25 µM | 3 to 10 µM | 3 to 10 µM
Cc1cc(C(=O)NC(Cc2ccccc2)C(=O)C(N)=O)c(-n2cc3ccccc3n2)s1 (stereo not drawn) [Compound 428, N-(4-amino-3,4-dioxo-1-phenylbutan-2-yl)-2-(2H-indazol-2-yl)-5-methylthiophene-3-carboxamide] |  |  |  |  |  | < 3 µM | > 25 µM | < 10 µM | < 3 µM | < 3 µM
Cn1cc(C(=O)N[C@@H](Cc2ccc(F)cc2)C(=O)C(N)=O)c(-c2ccccc2)n1 [Compound 168, (S)—N-(4-amino-1-(4-fluorophenyl)-3,4-dioxobutan-2-yl)-1-methyl-3-phenyl-1H-pyrazole-4-carboxamide] | < 3 µM | < 10 µM | 10 to 25 µM | < 3 µM | < 3 µM |  |  |  |  | 
Cc1nc(-c2ccccc2)c(C(=O)N[C@@H](CC(C)C)C(=O)C(N)=O)o1 [Compound 253, (S)—N-(1-amino-5-methyl-1,2-dioxohexan-3-yl)-2-methyl-4-phenyloxazole-5-carboxamide] | < 3 µM | > 25 µM | 10 to 25 µM | < 3 µM | < 3 µM |  |  |  |  | 
Cn1cc(C(=O)N[C@@H](Cc2ccccc2)C(=O)C(N)=O)c(-c2cccc(C(F)(F)F)c2)n1 [Compound 183, (S)—N-(4-amino-3,4-dioxo-1-phenylbutan-2-yl)-1-methyl-3-(3-(trifluoromethyl)phenyl)-1H-pyrazole-4-carboxamide] | < 3 µM | 10 to 25 µM | < 10 µM | < 3 µM | < 3 µM |  |  |  |  | 
Cc1cc(C)cc(CC(NC(=O)c2nsnc2-c2ccccc2)C(=O)C(N)=O)c1 (stereo not drawn) [Compound 466, N-(4-amino-1-(3,5-dimethylphenyl)-3,4-dioxobutan-2-yl)-4-phenyl-1,2,5-thiadiazole-3-carboxamide] |  |  |  |  |  | < 3 µM | > 25 µM | < 10 µM | < 3 µM | < 3 µM
Cc1ccccc1-c1nsnc1C(=O)NC(Cc1ccccc1)C(=O)C(N)=O (stereo not drawn) [Compound 326, N-(4-amino-3,4-dioxo-1-phenylbutan-2-yl)-4-(o-tolyl)-1,2,5-thiadiazole-3-carboxamide] |  |  |  |  |  | < 3 µM | < 10 µM | 10 to 25 µM | < 3 µM | < 3 µM
Cc1ccc(-n2nc(C)cc2C(=O)N[C@@H](Cc2ccccc2)C(=O)C(N)=O)nc1 [Compound 120, (S)—N-(4-amino-3,4-dioxo-1-phenylbutan-2-yl)-3-methyl-1-(5-methylpyridin-2-yl)-1H-pyrazole-5-carboxamide] | < 3 µM | 10 to 25 µM | < 10 µM | < 3 µM | < 3 µM |  |  |  |  | 
Cc1nc(-c2ccccc2)c(C(=O)N[C@@H](CCc2ccccc2)C(=O)C(N)=O)o1 [Compound 386, (S)—N-(1-amino-1,2-dioxo-5-phenylpentan-3-yl)-2-methyl-4-phenyloxazole-5-carboxamide] |  |  |  |  |  | < 3 µM | 10 to 25 µM | > 25 µM | < 3 µM | < 3 µM
NC(=O)C(=O)[C@H](Cc1ccccc1)NC(=O)c1nonc1-c1ccccc1 [Compound 293, (S)—N-(4-amino-3,4-dioxo-1-phenylbutan-2-yl)-4-phenyl-1,2,5-oxadiazole-3-carboxamide] | < 3 µM | < 10 µM | 10 to 25 µM | < 3 µM | < 3 µM |  |  |  |  | 
